Measured values: the OligoGym collection
After the bases stand the sugars from the 5' end (letter, count) and the backbone: PS all phosphorothioate, else s phosphorothioate and o phosphodiester by linkage. Methylation of C is not given here. e = 2'-O-(2-methoxyethyl) (MOE); k = constrained ethyl (cEt); d = 2'-deoxy (DNA); m = 2'-O-methyl

Molecular target: HSD17B13
Conditions: ASO, HepaRG

| Sequence | target mRNA inhibition (1 µM) [%] | other results |
| --- | --- | --- |
| TAGTTGGTAGCTTGCT (sugars k3 d10 k3, PS) | 66 | target mRNA inhibition (0.02 µM): 7%; target mRNA inhibition (0.078 µM): 31%; target mRNA inhibition (0.313 µM): 46%; target mRNA inhibition (1.25 µM): 74%; target mRNA inhibition (5 µM): 94% |
| CCAGTACAGTTCCTTT (sugars kkdddddddddkekek, PS) | 75 | target mRNA inhibition (0.02 µM): 29%; target mRNA inhibition (0.078 µM): 21%; target mRNA inhibition (0.313 µM): 44%; target mRNA inhibition (1.25 µM): 61%; target mRNA inhibition (5 µM): 90% |
| TGCCTGCCTATTCCAT (sugars k3 d10 k3, PS) | 40 |  |
| GATTAGTCTTGATGTA (sugars k3 d10 k3, PS) | 65 |  |
| GACATGAAGATTAGTT (sugars k3 d10 k3, PS) | 3 |  |
| AATTCACCTTGACTAA (sugars k3 d10 k3, PS) | 9 |  |
| AAATGTCTTGGTAATC (sugars k3 d10 k3, PS) | 30 |  |
| ATTATTTCTTGCGAGA (sugars k3 d10 k3, PS) | 60 |  |
| TCCTTATACTGAAGGC (sugars k3 d10 k3, PS) | 22 |  |
| CATTAGATGGTAAGGA (sugars k3 d10 k3, PS) | 32 |  |
| GCTCCATAATAATAGC (sugars k3 d1 m1 d8 k3, PS) | 16 |  |
| CTGTCTCCAATACAGG (sugars k3 d10 k3, PS) | 29 |  |
| AAAGACTTTGAGACTC (sugars k3 d9 k3 e1, PS) | 67 |  |
| ATTGAATTCACTATCT (sugars k3 d10 k3, PS) | 31 |  |
| TCATATCCAGTAGGTG (sugars k3 d10 k3, PS) | 32 |  |
| TAAGAGGCATGAAAGG (sugars k3 d10 k3, PS) | 52 |  |
| CATGGCTACAGATTGG (sugars k3 d10 k3, PS) | 54 |  |
| CGCGCTTATTAATATC (sugars k3 d10 k3, PS) | 6 |  |
| TCTGTCTCCAATACAG (sugars k3 d10 k3, PS) | 13 |  |
| TCATAGTGGACTTCAT (sugars k3 d10 k3, PS) | 36 |  |
| TTAGAGTGCTTAGTTC (sugars k3 d10 k3, PS) | 58 |  |
| GGCTTTATCATTCTAA (sugars k3 d10 k3, PS) | 20 |  |
| TTGAATAGCAAGCCAA (sugars k3 d1 m1 d8 k3, PS) | 30 |  |
| TAGTATAGTTATCTTC (sugars k3 d10 k3, PS) | 28 |  |
| TTATGTACCAAACTTG (sugars k3 d10 k3, PS) | 53 |  |
| GGAGTCGGATTATTTT (sugars k3 d10 k3, PS) | 41 |  |

| Sequence | target mRNA inhibition (1 µM) [%] | other results |
| --- | --- | --- |
| TTCTCTCCATCATCGA (sugars k3 d10 k3, PS) | 35 |  |
| AGAAATTCACCTTGAC (sugars kkdddddddddkekek, PS) | 33 |  |
| AATGTCTTGGTAATCT (sugars k3 d10 k3, PS) | 20 |  |
| GATACCAGTTTTTCCC (sugars k3 d10 k3, PS) | 75 |  |
| AAGAGTCAGTATCCTC (sugars k3 d9 k3 e1, PS) | 67 |  |
| TCTAGGAGATATAACA (sugars k3 d10 k3, PS) | 48 |  |
| TAATCTTGAGGCAGGA (sugars k3 d10 k3, PS) | 17 |  |
| CAAAGTTTGGGCAGAG (sugars k3 d10 k3, PS) | 44 |  |
| TCCTATATACATCCAA (sugars k3 d10 k3, PS) | 45 |  |
| TTAGAAACTGCTCCTC (sugars k3 d10 k3, PS) | 48 |  |
| GTGTAAGCTGAGAGTT (sugars k3 d10 k3, PS) | 60 |  |
| TAGCAGCTAAAATCCA (sugars k3 d10 k3, PS) | 66 |  |
| GCTGCTAGTGCCAAAC (sugars k3 d9 k3 e1, PS) | 62 |  |
| TTTAGGGCAAACCTTG (sugars k3 d10 k3, PS) | 67 |  |
| CACATACGCATGCGCA (sugars k3 d10 k3, PS) | 59 |  |
| CTTGAACAGTCTTAAA (sugars k3 d1 m1 d8 k3, PS) | 49 |  |
| AATGCTACTTGAACAG (sugars k3 d9 k3 e1, PS) | 50 |  |
| GCCTUGAATAGCAAGC (sugars k3 d1 m1 d8 k3, PS) | 12 |  |
| GCAGAAATTCACCTTG (sugars k3 d10 k3, PS) | 74 | target mRNA inhibition (0.02 µM): 5%; target mRNA inhibition (0.078 µM): 19%; target mRNA inhibition (0.313 µM): 26%; target mRNA inhibition (1.25 µM): 70%; target mRNA inhibition (5 µM): 88% |
| AGAAATTCACCTTGAC (sugars k3 d9 k3 e1, PS) | 7 |  |
| TTTCATAGGGAGACCA (sugars k3 d10 k3, PS) | 71 |  |
| GTTATAAGTTTCATGT (sugars k3 d10 k3, PS) | 21 |  |
| AGGCTAGGGAAATCTT (sugars kkdddddddddkekek, PS) | 45 |  |
| CAAATGAGGCGGCACT (sugars k3 d10 k3, PS) | 32 |  |
| CAAAACCTTTGTTGCC (sugars k3 d10 k3, PS) | 14 |  |
